{"source": "patent US20150023953A1", "about": "“METHOD OF TREATING CANCER” (priority 2012, published 2015)", "key": {"[1]": {"test_system": "HER2+ MBC patients with recurrent brain metastases", "assay": "Clinical Trial I: pharmacogenetic association of germline SNPs with PFS/OS during lapatinib monotherapy", "assay_type": "in vivo, human", "source_text": "Candidate genes for this experiment are listed below.\nCox proportional hazards model with Firth method.\n(GWAS, 1M Genome-Wide SNPs (Illumina human 1M duo)). […] Examined genes were divided into three tiers as follows: […]"}, "ABCG2 (BCRP)": {"target": "T1, ABCG2 (BCRP) (Homo sapiens, UniProt Q9UNQ0)", "T1 sequence (Q9UNQ0 1-655)": "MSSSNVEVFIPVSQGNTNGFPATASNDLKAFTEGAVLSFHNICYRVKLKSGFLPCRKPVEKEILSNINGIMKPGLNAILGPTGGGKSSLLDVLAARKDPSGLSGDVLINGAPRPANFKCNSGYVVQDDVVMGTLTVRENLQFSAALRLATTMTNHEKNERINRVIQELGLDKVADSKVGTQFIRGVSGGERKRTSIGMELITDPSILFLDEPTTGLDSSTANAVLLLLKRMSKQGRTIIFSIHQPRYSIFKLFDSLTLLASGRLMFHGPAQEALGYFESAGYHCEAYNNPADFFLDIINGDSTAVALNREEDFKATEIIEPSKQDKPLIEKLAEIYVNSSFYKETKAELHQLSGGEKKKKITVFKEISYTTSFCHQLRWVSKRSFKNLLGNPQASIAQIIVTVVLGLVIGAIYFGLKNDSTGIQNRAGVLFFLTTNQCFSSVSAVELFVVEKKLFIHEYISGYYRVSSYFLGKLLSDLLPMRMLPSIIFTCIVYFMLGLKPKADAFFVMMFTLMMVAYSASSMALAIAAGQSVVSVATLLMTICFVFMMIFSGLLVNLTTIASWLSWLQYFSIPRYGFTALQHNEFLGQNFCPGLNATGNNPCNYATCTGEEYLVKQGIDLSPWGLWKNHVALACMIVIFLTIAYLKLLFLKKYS", "settings": "cited from earlier work"}, "HER2+ MBC patients": {"test_system": "HER2+ MBC patients", "assay": "Meta-analysis and GWAS across Trial I and Trial II study-treatment arms", "assay_type": "in vivo, human", "settings": "across the trials or study arms", "source_text": "(GWAS, 1M Genome-Wide SNPs (Illumina human 1M duo)). […] Examined genes were divided into three tiers as follows:\n• GWAS SNPs: Bonferroni threshold for significance p=0.05/1M=5×10-8"}, "[2]": {"test_system": "HER2+ MBC patients with disease progression following trastuzumab", "settings": "Trial II", "method": "Fifty five single nucleotide polymorphisms (SNPs) with functional consequence in 24 candidate genes were evaluated. The assay platform used to genotype these SNPs was the Illumina Human 1M-Duo BeadChip.\nStatistical analysis of genetic associations were evaluated using an additive test. For any significant marker identified from the additive test, specific contrasts of interest between different genotypes will be explored to determine risk genotype(s). Cox proportional hazards model with Firth method. Any covariate significant at p≦0.05 in the multivariate Cox model will be included.\nTesting for associations of SNPs with progression free survival (PFS) and overall survival (OS) during lapatinib treatment was performed using Cox proportional hazards methods, with covariate adjustment.\nAssociations were evaluated using an additive genetic test, using a multivariate Cox proportional hazards model adjusting for significant clinical covariates and race/ethnicity difference. […] The primary endpoints was Progression Free Survival (PFS), where the secondary endpoint was Overall Survival (OS). […] Variants were assigned to tiers for analysis, with different association significance thresholds and these were specified prior to analysis to adjust for number of SNP tests, but not for number of endpoints and groups, as follows: • Candidate genes:"}, "ABCB1 (P-GP)": {"target": "ABCB1 (P-GP) (Homo sapiens, UniProt P08183)", "sequence (P08183 whole entry)": "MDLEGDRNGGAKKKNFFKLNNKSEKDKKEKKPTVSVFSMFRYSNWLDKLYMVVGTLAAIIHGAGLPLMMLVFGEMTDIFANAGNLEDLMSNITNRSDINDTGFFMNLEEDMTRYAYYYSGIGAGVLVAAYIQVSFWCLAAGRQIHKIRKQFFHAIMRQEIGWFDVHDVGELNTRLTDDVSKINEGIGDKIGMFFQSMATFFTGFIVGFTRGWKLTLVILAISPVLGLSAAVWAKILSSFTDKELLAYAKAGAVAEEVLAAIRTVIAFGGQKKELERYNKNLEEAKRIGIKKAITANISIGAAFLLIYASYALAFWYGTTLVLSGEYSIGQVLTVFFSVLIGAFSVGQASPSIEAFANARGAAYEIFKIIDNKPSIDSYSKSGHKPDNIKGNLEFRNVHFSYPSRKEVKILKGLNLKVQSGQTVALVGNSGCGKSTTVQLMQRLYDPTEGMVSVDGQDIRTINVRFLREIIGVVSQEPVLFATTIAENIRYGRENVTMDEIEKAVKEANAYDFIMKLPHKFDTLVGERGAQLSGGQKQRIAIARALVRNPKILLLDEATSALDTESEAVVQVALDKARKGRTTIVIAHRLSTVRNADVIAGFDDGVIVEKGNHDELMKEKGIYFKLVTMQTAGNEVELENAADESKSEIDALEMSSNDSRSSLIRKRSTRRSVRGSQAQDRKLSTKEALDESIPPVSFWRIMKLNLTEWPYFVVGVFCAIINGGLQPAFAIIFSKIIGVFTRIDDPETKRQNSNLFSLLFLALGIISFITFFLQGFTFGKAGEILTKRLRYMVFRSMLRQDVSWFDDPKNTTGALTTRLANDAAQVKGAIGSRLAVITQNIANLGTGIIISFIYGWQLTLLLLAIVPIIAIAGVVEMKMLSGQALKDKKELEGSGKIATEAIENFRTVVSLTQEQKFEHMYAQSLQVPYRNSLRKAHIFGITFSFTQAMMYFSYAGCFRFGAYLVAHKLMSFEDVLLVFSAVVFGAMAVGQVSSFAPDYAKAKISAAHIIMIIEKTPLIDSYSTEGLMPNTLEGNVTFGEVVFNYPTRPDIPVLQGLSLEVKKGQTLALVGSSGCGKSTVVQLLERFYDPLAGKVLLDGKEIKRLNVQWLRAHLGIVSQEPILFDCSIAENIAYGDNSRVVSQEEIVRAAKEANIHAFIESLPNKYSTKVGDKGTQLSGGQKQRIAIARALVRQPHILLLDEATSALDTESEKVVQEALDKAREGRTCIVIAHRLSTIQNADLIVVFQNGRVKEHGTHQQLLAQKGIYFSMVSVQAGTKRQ", "settings": "cited from earlier work"}, "CYP3A4": {"target": "CYP3A4 (Homo sapiens, UniProt P08684)", "sequence (P08684 whole entry)": "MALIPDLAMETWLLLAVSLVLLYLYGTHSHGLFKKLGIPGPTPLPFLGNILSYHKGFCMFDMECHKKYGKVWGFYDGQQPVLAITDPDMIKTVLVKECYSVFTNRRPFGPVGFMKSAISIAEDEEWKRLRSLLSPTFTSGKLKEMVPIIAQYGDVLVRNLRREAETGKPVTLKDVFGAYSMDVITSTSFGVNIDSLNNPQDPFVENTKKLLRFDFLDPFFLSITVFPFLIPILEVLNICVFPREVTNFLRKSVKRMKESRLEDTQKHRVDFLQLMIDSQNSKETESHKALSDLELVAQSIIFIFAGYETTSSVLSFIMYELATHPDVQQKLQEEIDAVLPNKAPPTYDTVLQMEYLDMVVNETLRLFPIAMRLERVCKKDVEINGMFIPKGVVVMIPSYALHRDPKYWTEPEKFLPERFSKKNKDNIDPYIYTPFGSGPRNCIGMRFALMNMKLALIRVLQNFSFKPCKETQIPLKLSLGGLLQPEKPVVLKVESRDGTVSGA", "settings": "cited from earlier work"}}, "data": [{"smiles": "CS(=O)(=O)CCNCc1ccc(-c2ccc3ncnc(Nc4ccc(OCc5cccc(F)c5)c(Cl)c4)c3c2)o1", "note": "[lapatinib, N-(3-chloro-4-{[(3-fluorophenyl)methyl]oxy}phenyl)-6-[5-({[2-(methylsulfonyl)ethyl]amino}methyl)-2-furanyl]-4-quinazolinamine]", "values": [{"measurement": "association of VEGFR2 rs1870377 18487A>T with OS", "setting": "[1]", "value": "not seen"}, {"measurement": "association of SNPs with progression-free survival (PFS)", "setting": "[1]; 55 SNPs in 24 candidate genes", "value": "No SNPs were statistically significantly associated"}, {"measurement": "allelic hazard ratio for overall survival (OS), VEGFA rs3025039 936C>T", "setting": "[1]; lapatinib monotherapy, improved OS for T allele carriers, range in brackets", "value": "0.21 (0.08-0.52)"}, {"measurement": "substrate status", "setting": "ABCG2 (BCRP)", "value": "(BCRP) lapatinib is substrate"}, {"measurement": "GWAS signals (p<5×10-8) with common markers (MAF>5%)", "setting": "HER2+ MBC patients", "value": "no strong signals"}, {"measurement": "association of VEGFA rs3025039 936C>T with OS", "setting": "[2]", "value": "not seen"}, {"measurement": "association of SNPs with progression-free survival (PFS)", "setting": "[2]; 55 SNPs in 24 candidate genes", "value": "No SNPs were statistically significantly associated"}, {"measurement": "allelic hazard ratio for OS, VEGFR2 rs1870377 18487A>T Q472H", "setting": "[2]; T allele carriers showing improved OS, range in brackets", "value": "0.47 (0.3-0.73)"}, {"measurement": "allelic hazard ratio for OS, carriage of either IGFR1 minor allele (rs2037448 or rs7181022) vs wild type", "setting": "[2]; carriers have poorer OS, range in brackets", "value": "5.0 (2.2-10.0)"}, {"measurement": "substrate status", "setting": "ABCB1 (P-GP)", "value": "(P-GP) lapatinib is substrate"}, {"measurement": "inhibitor status", "setting": "CYP3A4", "value": "inhibitor"}, {"measurement": "substrate status", "setting": "CYP3A4", "value": "substrate"}]}]}
